Experiments:
[1] = Hygroscopicity: standing for nine days at controlled temperature and relative humidity; format: physicochemical; settings: for decomposition or change in weight on standing: initial water content approximately 14%
Procedure: U2P4.4Na crystals (octahydrate) having a water content of approximately 14% were allowed to stand for nine days under the following conditions: a) 25° C. and a relative humidity of 57%; b) 25° C. and a relative humidity of 75%; and c) 40° C. and a relative humidity of 75%. […] The crystals have proven to be stable and to have no hygroscopicity. U2P4.4Na crystals (tetrahydrate) having a water content of approximately 8% were allowed to stand for nine days under conditions of 40° C. and a relative humidity of 75%. In this case, the water content increased to 14-15%.

[2] = Stability: acceleration test in sealed bottles at 60° C. for 13 days; format: physicochemical; settings: sealed bottle, 13 days at 60° C.
Procedure: U2P4.4Na crystals (octahydrate) and a lyophilized product were placed in respective bottles, which were then sealed and allowed to stand for 13 days at 60° C. (acceleration test).

decomposition or change in weight on standing ([1]; nine days, 25° C. and a relative humidity of 57%)	decomposition or change in weight on standing ([1]; nine days, 25° C. and a relative humidity of 75%)	decomposition or change in weight on standing ([1]; nine days, 40° C. and a relative humidity of 75%)	decomposition [2]	water content after standing ([1]; nine days, 40° C. and a relative humidity of 75%, initial water content approximately 8% (tetrahydrate))	state of the product on storage ([1]; 40° C. and a relative humidity of 75%, on the seventh day of storage)	change of water content on standing ([1]; nine days, 40° C. and a relative humidity of 75%, initial water content approximately 1%)	weight loss of U2P4.4Na [2]	SMILES
No decomposition or change in weight	No decomposition or change in weight	No decomposition or change in weight	No decomposition					O=c1ccn([C@@H]2O[C@H](COP(=O)([O-])OP(=O)([O-])OP(=O)([O-])OP(=O)([O-])OC[C@H]3O[C@@H](n4ccc(=O)[nH]c4=O)C(O)C3O)C(O)C2O)c(=O)[nH]1.[Na+].[Na+].[Na+].[Na+] (stereo partly drawn) [U2P4.4Na crystals (octahydrate), P^1,P^4-di(uridine 5′-)tetraphosphate tetrasodium salt]
				14-15%				O=c1ccn([C@@H]2O[C@H](COP(=O)([O-])OP(=O)([O-])OP(=O)([O-])OP(=O)([O-])OC[C@H]3O[C@@H](n4ccc(=O)[nH]c4=O)C(O)C3O)C(O)C2O)c(=O)[nH]1.[Na+].[Na+].[Na+].[Na+] (stereo partly drawn) [U2P4.4Na crystals (tetrahydrate), P^1,P^4-di(uridine 5′-)tetraphosphate tetrasodium salt]
			partial decomposition		mud-like state due to deliquescence	increased gradually	approximately 1.4%	O=c1ccn([C@@H]2O[C@H](COP(=O)([O-])OP(=O)([O-])OP(=O)([O-])OP(=O)([O-])OC[C@H]3O[C@@H](n4ccc(=O)[nH]c4=O)C(O)C3O)C(O)C2O)c(=O)[nH]1.[Na+].[Na+].[Na+].[Na+] (stereo partly drawn) [lyophilized product, P^1,P^4-di(uridine 5′-)tetraphosphate tetrasodium salt, reference compound]

— US20020156269A1, “Crystals of diuridine tetraphosphate or salt thereof, process for producing the crystals, and process for producing the compounds” (YAMASA CORPORATION, priority 1998, published 2002)
